Literature values as cited in US20100197944A1, “DOCETAXEL PROCESS AND POLYMORPHS” (DR. REDDY'S LABORATORIES LIMITED, priority 2007, published 2010).

Details: compared with anhydrous docetaxel

CC(=O)O[C@@]12CO[C@@H]1C[C@H](O)[C@@]1(C)C(=O)[C@H](O)C3=C(C)[C@@H](OC(=O)[C@H](O)[C@@H](NC(=O)OC(C)(C)C)c4ccccc4)C[C@@](O)([C@@H](OC(=O)c4ccccc4)[C@H]21)C3(C)C [Docetaxel trihydrate, 4-acetoxy-2α-benzoyloxy-5β,20-epoxy-1,7β,10β-trihydroxy-9-oxo-tax-11-en-13-α-yl-(2R,3S)-3-tert-butoxycarbonylamino-2-hydroxy-3-phenylpropionate trihydrate]
Stability relative to the anhydrous product: substantially greater stability
